Drawing on US10689414B2 (Agios Pharmaceuticals, Inc., priority 2013, dated 2020), this text covers IC50 for ten compounds.

A value given as a limit tells only on which side of the number the result lay.

In the experiment the test system is U87MG cells. As to the kind of experiment: Cellular assay, inhibition of 2-HG production in U87MG cells. The note with it: Homo sapiens, U-87 MG, 48 h. Format: cell-based. A digest of the protocol: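 HT1080 or U87MG cells (U87MG kept with 500 ug/mL G418) seeded at 5000 cells/well and treated with compound at 0.2% final DMSO. Incubated 48 h at 37 °C. 2-HG inhibition determined by LC-MS. Viability read by CellTiter-Glo luminescence at 72 h post-dose.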

As a reminder, the IC50 is the concentration needed to halve the response being measured. `N#Cc1ccnc(N2C(=O)CC[C@H]2C(=O)N(c2cc(F)cc(F)c2)[C@H](C(=O)NC2CC(F)(F)C2)c2ccccc2Cl)c1F` [Compound 88, (S)—N—((S)-1-(2-Chlorophenyl)-2-((3,3-difluorocyclobutyl)amino)-2-oxoethyl)-1-(4-cyano-3-fluoropyridin-2-yl)-N-(3,5-difluorophenyl)-5-oxopyrrolidine-2-carboxamide]: the IC50 is less than 100 nM.

With `N#Cc1ccnc(N2C(=O)CCC[C@H]2C(=O)N(c2cccc(F)c2)[C@H](C(=O)NC2CC(F)(F)C2)c2ccccc2Cl)c1` [Compound 55, (S)—N—((S)-1-(2-Chlorophenyl)-2-(3,3-difluorocyclobutylamino)-2-oxoethyl)-1-(4-cyanopyri-din-2-yl)-N-(3-fluorophenyl)-6-oxopiperidine-2-carboxamide], the IC50 is less than 100 nM. The compound `N#Cc1ccnc(N2C(=O)CC[C@H]2C(=O)N(c2cccc(OCCO)c2)[C@H](C(=O)NC2CC(F)(F)C2)c2ccccc2Cl)c1` [Compound 130, (S)—N—((S)-1-(2-Chlorophenyl)-2-((3,3-difluorocyclobutyl)amino)-2-oxoethyl)-1-(4-cyanopyridin-2-yl)-N-(3-(2-hydroxyethoxy)phenyl)-5-oxopyrrolidine-2-carboxamide] registered an IC50 of less than 100 nM.

In turn, `N#Cc1ccnc(N2C(=O)CC[C@H]2C(=O)N(c2cccc(F)c2F)[C@H](C(=O)NC2CC(F)(F)C2)c2ccccc2Cl)c1` [Compound 188, (S)—N—((S)-1-(2-Chlorophenyl)-2-((3,3-difluorocyclobutyl)amino)-2-oxoethyl)-1-(4-cyanopyridin-2-yl)-N-(2,3-difluorophenyl)-5-oxopyrrolidine-2-carboxamide] returned an IC50 of less than 100 nM.

Compound `CS(=O)(=O)c1cccc(N(C(=O)[C@@H]2CCC(=O)N2c2cc(C#N)ccn2)C(C(=O)NC2CCC(F)(F)CC2)c2ccccc2Cl)c1` (stereo partly drawn) [Compound 95, (2S)—N-(1-(2-Chlorophenyl)-2-((4,4-difluorocyclohexyl)amino)-2-oxoethyl)-1-(4-cyanopyridin-2-yl)-N-(3-(methylsulfonyl)phenyl)-5-oxopyrrolidine-2-carboxamide] came in with an IC50 of less than 100 nM. With `CN(C)S(=O)(=O)c1cccc(N(C(=O)[C@@H]2CCC(=O)N2c2cc(C#N)ccn2)[C@H](C(=O)NC2CC(F)(F)C2)c2ccccc2Cl)c1` [Compound 156, (S)—N—((S)-1-(2-Chlorophenyl)-2-(3,3-difluorocyclobutylamino)-2-oxoethyl)-1-(4-cyanopyri-din-2-yl)-N-(3-(N,N-dimethylsulfamoyl)phenyl)-5-oxopyrrolidine-2-carboxamide] the figure was less than 100 nM; with `N#Cc1ccnc(N2C(=O)CC[C@H]2C(=O)N(c2cncc(F)c2)[C@H](C(=O)NC2CCC(F)(F)CC2)c2ccccc2Cl)c1` [Compound 193, (S)—N—((S)-1-(2-Chlorophenyl)-2-(4,4-difluorocyclohexylamino)-2-oxoethyl)-1-(4-cyanopyridin-2-yl)-N-(5-fluoropyridin-3-yl)-5-oxopyrrolidine-2-carboxamide], less than 100 nM. For the compound `C[C@]1(O)C[C@@H](C(=O)N(c2cccc(F)c2)[C@H](C(=O)NC2CC(F)(F)C2)c2ccccc2Cl)N(c2cc(C#N)ccn2)C1=O` (stereo in doubt) [Compound 183, (2S)—N—((R)-1-(2-chlorophenyl)-2-(3,3-difluorocyclobutylamino)-2-oxoethyl)-1-(4-cyanopyridin-2-yl)-N-(3-fluorophenyl)-4-hydroxy-4-methyl-5-oxopyrrolidine-2-carboxamide], the IC50 was less than 100 nM. Then `CNS(=O)(=O)c1cccc(N(C(=O)[C@@H]2CCC(=O)N2c2cc(C#N)ccn2)[C@H](C(=O)NC2CC(F)(F)C2)c2ccccc2Cl)c1` [Compound 157], with less than 100 nM. Then `O=C(NC1CC(F)(F)C1)C(c1ccccc1Cl)N(C(=O)[C@@H]1CCCC(=O)N1c1ncccn1)c1cccc(F)c1` (stereo in doubt) [Compound 20, (S)—N—((R)-1-(2-Chloro-phenyl)-2-((3,3-difluorocyclobutyl)amino)-2-oxoethyl)-N-(3-fluoro-phenyl)-6-oxo-1-(pyrimidin-2-yl)piperidine-2-carboxamide], with 100 to 500 nM.
